Reference: PMC8317666, “Combining flavin photocatalysis with parallel synthesis: a general platform to optimize peptides with non-proteinogenic amino acids” (Chemical Science, 2021)

Molecular target: Thrombin (Homo sapiens, UniProt P00734)
Test: Thrombin inhibition assay (Sigma Thrombin Inhibitor Screening Kit MAK243)
[1] = 80 μM peptide (screening grade, mixture of diastereomers), 15 min preincubation with thrombin at room temperature, AMC-based peptide substrate, 37 °C, 30 min incubation, fluorescence Ex/Em 350/450 nm, 384-well, replicate 1 of 2
[2] = 80 μM peptide (screening grade, mixture of diastereomers), 15 min preincubation, AMC substrate, 37 °C, 30 min, fluorescence, average of two independent experiments

Row | Substance | Percent thrombin inhibition, 1st run [1] | Percent thrombin inhibition, Average [2] | Percent thrombin inhibition, Average (80 μM peptide (screening grade, mixture of diastereomers), 15 min preincubation, AMC substrate, 37 °C, 30 min, fluorescence, average of two independent experiments, listed as 3C′) | Percent thrombin inhibition, Average (80 μM, parent peptide and HPLC-separated diastereomers of 3C' (>95% purity), 30 min incubation, average of three independent experiments) | Percent thrombin inhibition, 1st run (80 μM, parent peptide and HPLC-separated diastereomers of 3C' (>95% purity), 30 min incubation, replicate 1 of 3) | Percent thrombin inhibition, 2nd run (80 μM, parent peptide and HPLC-separated diastereomers of 3C' (>95% purity), 30 min incubation, replicate 2 of 3) | Percent thrombin inhibition, 3rd run (80 μM, parent peptide and HPLC-separated diastereomers of 3C' (>95% purity), 30 min incubation, replicate 3 of 3) | Percent thrombin inhibition, 2nd run (80 μM peptide (screening grade, mixture of diastereomers), 15 min preincubation, AMC substrate, 37 °C, 30 min, fluorescence, replicate 2 of 2)
1 | Ac-Gly-Pro-[N(Me)-2-Ind]-Phe-NH2 [3C'] | 96.7% | 96.9% | 97% | – | – | – | – | –
2 | Ac-Gly-Pro-Phe-Phe-NH2 [Ac-G-P-F-F-NH2] | – | – | – | 7.1% | 9.4% | 5.5% | 6.5% | –
3 | Ac-G-P-[5-Qin]-F-NH2 [4B'] | -2.1% | -2.5% | – | – | – | – | – | -2.9%
